US6777422B2, “Substituted tetrahydroisoquinolines as C5a receptor modulators” (Neurogen Corp., priority 2002, dated 2004)

Target: T1, human C5a receptor (Homo sapiens, UniProt P21730)
T1 construct: endogenous in cells; host or cells: U937 cells differentiated with 1 mM dibutyryl cAMP
T1 sequence (P21730 1-350): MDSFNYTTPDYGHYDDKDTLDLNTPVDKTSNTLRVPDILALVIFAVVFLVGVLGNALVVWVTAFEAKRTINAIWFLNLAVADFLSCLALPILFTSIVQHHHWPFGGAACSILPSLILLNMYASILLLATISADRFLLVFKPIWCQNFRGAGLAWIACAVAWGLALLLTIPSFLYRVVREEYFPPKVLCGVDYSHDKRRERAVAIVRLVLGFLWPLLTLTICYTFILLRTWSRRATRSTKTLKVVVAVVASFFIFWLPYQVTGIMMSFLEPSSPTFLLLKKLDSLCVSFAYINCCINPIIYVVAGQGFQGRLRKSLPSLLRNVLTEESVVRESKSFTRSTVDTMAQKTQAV
Assay: C5a receptor mediated calcium mobilization assay (Example 20)
Type: cell-based
Conditions: differentiated U937 cells, read-out: Ca2+ (Ki in the standard assay of C5a receptor mediated calcium mobilization)
Method in brief: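 Differentiated U937 cells (dibutyryl cAMP, 48 h) loaded with Fluo-3 were pre-incubated 1 h with compound at 1 μM, then challenged with 0.3 nM (final) human recombinant C5a. Calcium response monitored by FLIPR fluorescence (Ex 480/Em 530 nm); antagonism defined as ≥2-fold decrease versus C5a alone.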

SMILES	Ki
Cc1ccccc1C1c2ccccc2CCN1CC(=O)N(Cc1cc(O)ccc1F)C1Cc2ccccc2C1 (centres unmarked) [Compound 101, N-(indan-2-yl)-N-(2-fluoro-5-hydroxybenzyl)-2-[1-(2-methylphenyl)-3,4-dihydroisoquinolin-2(1H)-yl]acetamide]	< 1000 nM
C[C@@H](C(=O)N(Cc1ccccc1F)C1Cc2ccccc2C1)N1CCc2ccccc2[C@@H]1c1c(Cl)cccc1Cl [Compound 102, (2S)-2-[(1R)-1-(2,6-dichlorophenyl)-3,4-dihydroisoquinolin-2(1H)-yl]-N-(indan-2-yl)-N-(2-fluorobenzyl)propanamide]	< 1000 nM
C[C@@H](C(=O)N(Cc1ccccc1F)C1Cc2ccccc2C1)N1CCc2ccccc2[C@@H]1c1c(F)cccc1Cl [Compound 103, (2S)-2-[(1R)-1-(2-chloro-6-fluorophenyl)-3,4-dihydroisoquinolin-2(1H)-yl]-N-(indan-2-yl)-N-(2-fluorobenzyl)propanamide]	< 1000 nM
C[C@@H](C(=O)N(CCc1ccccc1F)Cc1ccc(O)cc1)N1CCc2ccccc2[C@@H]1c1ccccc1Cl [Compound 104, (2S)-2-[(1R)-1-(2-chlorophenyl)-3,4-dihydroisoquinolin-2(1H)-yl]-N-[2-(2-fluorophenyl)ethyl]-N-(4-hydroxybenzyl)propanamide]	< 1000 nM
C[C@@H](C(=O)N(Cc1cccc(C(=O)N(C)C)c1)C1Cc2ccccc2C1)N1CCc2ccccc2[C@@H]1c1ccccc1Cl [Compound 105, 3-{[{(2S)-2-[(1R)-1-(2-chlorophenyl)-3,4-dihydroisoquinolin-2(1H)-yl]propanoyl}(indan-2-yl)amino]methyl}-N,N-dimethylbenzamide]	< 1000 nM
Cc1cc(CN(C(=O)[C@H](C)N2CCc3ccccc3[C@@H]2c2ccccc2Cl)C2Cc3ccccc3C2)cc(C)c1O [Compound 106, (2S)-2-[(1R)-1-(2-chlorophenyl)-3,4-dihydroisoquinolin-2(1H)-yl]-N-(indan-2-yl)-N-(4-hydroxy-3,5-dimethylbenzyl)propanamide]	< 1000 nM
C[C@@H](C(=O)N(CCc1ccccc1)CCc1ccccc1F)N1CCc2ccccc2[C@@H]1c1ccccc1Cl [Compound 108, (2S)-2-[(1R)-1-(2-chlorophenyl)-3,4-dihydroisoquinolin-2(1H)-yl]-N-[2-(2-fluorophenyl)ethyl]-N-(2-phenylethyl)propanamide]	< 1000 nM
C[C@@H](C(=O)N(CCc1ccccc1F)Cc1ccccc1F)N1CCc2ccccc2[C@@H]1c1ccccc1Cl [Compound 109, (2S)-2-[(1R)-1-(2-chlorophenyl)-3,4-dihydroisoquinolin-2(1H)-yl]-N-(2-fluorobenzyl)-N-[2-(2-fluorophenyl)ethyl] propanamide]	< 1000 nM
Cc1cc(CN(C(=O)[C@H](C)N2CCc3ccccc3[C@@H]2c2c(Cl)cccc2Cl)C2Cc3ccccc3C2)cc(C)c1O [Compound 110, (2S)-2-[(1R)-1-(2,6-dichlorophenyl)-3,4-dihydroisoquinolin-2(1H)-yl]-N-(indan-2-yl)-N-(4-hydroxy-3,5-dimethylbenzyl) propanamide]	< 1000 nM
C[C@@H](C(=O)N(Cc1cccc(C#N)c1)C1Cc2ccccc2C1)N1CCc2ccccc2[C@@H]1c1ccccc1Cl [Compound 111, (2S)-2-[(1R)-1-(2-chlorophenyl)-3,4-dihydroisoquinolin-2(1H)-yl]-N-(3-cyanobenzyl)-N-(indan-2-yl)propanamide]	< 1000 nM
C[C@@H](C(=O)N(Cc1cccc([N+](=O)[O-])c1)C1Cc2ccccc2C1)N1CCc2ccccc2[C@@H]1c1ccccc1Cl [Compound 112, (2S)-2-[(1R)-1-(2-chlorophenyl)-3,4-dihydroisoquinolin-2(1H)-yl]-N-(indan-2-yl)-N-(3-nitrobenzyl)propanamide]	< 1000 nM
Cc1ccccc1[C@H]1c2ccccc2CCN1CC(=O)N(Cc1cccc(O)c1)C1Cc2ccccc2C1 [Compound 113, N-(indan-2-yl)-N-(3-hydroxybenzyl)-2-[(1S)-1-(2-methylphenyl)-3,4-dihydroisoquinolin-2(1H)-yl]acetamide]	< 1000 nM
C[C@@H](C(=O)N(Cc1cccc(O)c1)C1Cc2ccccc2C1)N1CCc2ccccc2[C@@H]1c1ccccc1Cl [Compound 114, (2S)-2-[(1R)-1-(2-chlorophenyl)-3,4-dihydroisoquinolin-2(1H)-yl]-N-(indan-2-yl)-N-(3-hydroxybenzyl)propanamide]	< 1000 nM
C[C@@H](C(=O)N(Cc1cccc(O)c1F)C1Cc2ccccc2C1)N1CCc2ccccc2[C@@H]1c1ccccc1Cl [Compound 115, (2S)-2-[(1R)-1-(2-chlorophenyl)-3,4-dihydroisoquinolin-2(1H)-yl]-N-(indan-2-yl)-N-(2-fluoro-3-hydroxybenzyl)propanamide]	< 1000 nM
Cc1ccccc1C1c2c(Cl)cccc2CCN1CC(=O)N(Cc1ccccc1F)C1Cc2ccccc2C1 (centres unmarked) [Compound 116, 2-[8-chloro-1-(2-methylphenyl)-3,4-dihydroisoquinolin-2(1H)-yl]-N-(indan-2-yl)-N(2-fluorobenzyl)acetamide]	< 1000 nM
O=C(CN1CCc2cccc(Cl)c2C1c1c(F)cccc1Cl)N(Cc1ccccc1F)C1Cc2ccccc2C1 (centres unmarked) [Compound 117, 2-[8-chloro-1-(2-chloro-6-fluorophenyl)-3,4-dihydroisoquinolin-2(1H)-yl]-N-(indan-2-yl)-N-(2-fluorobenzyl)acetamide]	< 1000 nM
C[C@@H](C(=O)N(CCc1ccc(O)cc1)Cc1ccccc1F)N1CCc2ccccc2[C@@H]1c1cccc2ccccc12 [Compound 118, (2S)-N-(2-fluorobenzyl)-N-[2-(4-hydroxyphenyl)ethyl]-2-[(1R)-1-(1-naphthyl)-3,4-dihydroisoquinolin-2(1H)-yl]propanamide]	< 1000 nM
C[C@@H](C(=O)N(CCc1c[nH]c2ccccc12)Cc1ccccc1F)N1CCc2ccccc2[C@@H]1c1cccc2ccccc12 [Compound 119, (2S)-N-(2-fluorobenzyl)-N-[2-(1H-indol-3-yl)ethyl]-2-[(1R)-1-(1-naphthyl)-3,4-dihydroisoquinolin-2(1H)-yl]propanamide]	< 1000 nM
C[C@@H](C(=O)N(Cc1cccc(OC(F)F)c1F)C1Cc2ccccc2C1)N1CCc2ccccc2[C@@H]1c1ccccc1Cl [Compound 120, (2S)-2-[(1R)-1-(2-chlorophenyl)-3,4-dihydroisoquinolin-2(1H)-yl]-N-[3-(difluoromethoxy)-2-fluorobenzyl]-N-(indan-2-yl)propanamide]	< 1000 nM
COc1ncccc1CN(C(=O)[C@H](C)N1CCc2ccccc2[C@@H]1c1cccc2ccccc12)C1Cc2ccccc2C1 [Compound 121, (2S)-N-(indan-2-yl)-N-[(2-methoxypyridin-3-yl)methyl]-2-[(1R)-1-(1-naphthyl)-3,4-dihydroisoquinolin-2(1H)-yl]propanamide]	< 1000 nM
COc1ncccc1CN(Cc1ccccc1F)C(=O)[C@H](C)N1CCc2ccccc2[C@@H]1c1cccc2ccccc12 [Compound 122, (2S)-N-(2-fluorobenzyl)-N-[(2-methoxypyridin-3-yl)methyl]-2-[(1R)-1-(1-naphthyl)-3,4-dihydroisoquinolin-2(1H)-yl]propanamide]	< 1000 nM
O=C(CN1CCc2ccccc2C1c1ccc(O)cc1)N(Cc1ccccc1F)C1Cc2ccccc2C1 (centres unmarked) [Compound 123, N-(indan-2-yl)-N-(2-fluorobenzyl)-2-[1-(4-hydroxyphenyl)-3,4-dihydroisoquinolin-2(1H)-yl]acetamide]	< 1000 nM
COc1cccc(CN(C(=O)[C@H](C)N2CCc3ccccc3[C@@H]2c2cccc3ccccc23)C2Cc3ccccc3C2)n1 [Compound 124, (2S)-N-(indan-2-yl)-N-[(6-methoxypyridin-2-yl)methyl]-2-[(1R)-1-(1-naphthyl)-3,4-dihydroisoquinolin-2(1H)-yl]propanamide]	< 1000 nM
COc1cccc(CN(Cc2ccccc2F)C(=O)[C@H](C)N2CCc3ccccc3[C@@H]2c2cccc3ccccc23)n1 [Compound 125, (2S)-N-(2-fluorobenzyl)-N-[(6-methoxypyridin-2-yl)methyl]-2-[(1R)-1-(1-naphthyl)-3,4-dihydroisoquinolin-2(1H)-yl]propanamide]	< 1000 nM
C[C@@H](C(=O)N(Cc1ncccc1F)C1Cc2ccccc2C1)N1CCc2ccccc2[C@@H]1c1cccc2ccccc12 [Compound 126, (2S)-N-(indan-2-yl)-N-[(3-fluoropyridin-2-yl)methyl]-2-[(1R)-1-(1-naphthyl)-3,4-dihydroisoquinolin-2(1H)-yl]propanamide]	< 1000 nM
COc1cncc(CN(C(=O)[C@H](C)N2CCc3ccccc3[C@@H]2c2cccc3ccccc23)C2Cc3ccccc3C2)c1 [Compound 127, (2S)-N-(indan-2-yl)-N-[(5-methoxypyridin-3-yl)methyl]-2-[(1R)-1-(1-naphthyl)-3,4-dihydroisoquinolin-2(1H)-yl]propanamide]	< 1000 nM

Same assay, conditions: differentiated U937 cells, unit inferred, read-out: Ca2+ (numeric value, C5a receptor mediated calcium mobilization)

SMILES	Ki
Cc1ccccc1C1C(C)CCCN1CC(=O)N(Cc1ccccc1F)C1Cc2ccccc2C1 (centres unmarked) [Compound 128, N-(2-Fluoro-benzyl)-N-indan-2-yl-2-(3-methyl-2-o-tolyl-piperidin-1-yl)-acetamide]	547 nM
Cc1ccccc1C1CCCCN1CC(=O)N(Cc1ccccc1F)C1Cc2ccccc2C1 (centres unmarked) [Compound 129, N-(2-Fluoro-benzyl)-N-indan-2-yl-2-(2-o-tolyl-piperidin-1-yl)-acetamide]	131 nM
COc1ccccc1C1CCCCN1CC(=O)N(Cc1ccccc1F)C1Cc2ccccc2C1 (centres unmarked) [Compound 130, N-(2-Fluoro-benzyl)-N-indan-2-yl-2-[2-(2-methoxy-phenyl)-piperidin-1-yl]-acetamide]	405 nM
